{"source": "patent US20190002429A1", "about": "“Derivatives of Xanthone Compounds” (Agency for Science, Technology and Research, priority 2011, published 2019)", "key": {"[1]": {"system": "MRSA QC Strain ATCC BAA1026", "assay": "MIC against MRSA QC strain ATCC BAA1026", "assay_type": "cell-based, Staphylococcus aureus"}, "[2]": {"system": "Enterococcus faecalis ATCC 51299 VRE", "assay": "MIC against Enterococcus faecalis ATCC 51299 VRE", "assay_type": "cell-based", "details": "E. faecalis ATCC 51299 VRE; no unit in table (Example 10 MICs in μg/ml)"}, "[3]": {"system": "Staphylococcus aureus ATCC29213", "assay": "MIC against S. aureus ATCC29213", "assay_type": "cell-based"}, "[4]": {"system": "Gram-positive bacteria", "assay": "Antimicrobial activity against Gram-positive bacteria (statement)", "assay_type": "cell-based"}, "[5]": {"system": "S. aureus", "assay": "MIC99 against S. aureus (Table 2-1)", "assay_type": "cell-based, Staphylococcus aureus"}, "[6]": {"system": "MRSA strain DM21455", "assay": "Kill curve (time killing) of MRSA", "assay_type": "cell-based, Staphylococcus aureus", "details": "FIG. 1"}, "[7]": {"system": "Streptococcus faecium ATCC 10541", "assay": "MIC against Streptococcus faecium ATCC 10541", "assay_type": "cell-based"}, "[8]": {"system": "Streptococcus epidermidis ATCC 12228", "assay": "MIC against Streptococcus epidermidis ATCC 12228", "assay_type": "cell-based"}, "[9]": {"system": "Mycobacterium tuberculosis"}, "[10]": {"system": "Clinical Staphylococcus aureus DM4299", "assay": "MIC against clinical S. aureus DM4299", "assay_type": "cell-based"}, "[11]": {"system": "S. aureus DM4001", "assay": "SYTOX green membrane permeabilization assay, S. aureus", "details": "10 μM", "method": "S. aureus DM4001 was harvested at early exponential phase and suspended in 40 mM PBS until OD620 of 0.09 was obtained. Then, the bacteria suspension was incubated with 3 μM of SYTOX Green in dark. The mixture was monitored in a stirring cuvette at an excitation wavelength of 504 nm and at an emission wavelength of 523 nm until the fluorescence was stable. Then, 10 μM of AM compounds were added and the changed of fluorescence emissions were monitored."}, "[12]": {"system": "MRSA DB57964/04", "assay": "MIC against MRSA DB57964/04", "assay_type": "cell-based, Staphylococcus aureus"}, "[13]": {"assay": "Calcein leakage from E. coli lipid extract liposomes", "details": "for % Leakage of calcein: E. coli extract", "procedure": "To further investigate antimicrobial action of the active compounds via inner membrane targeting, a calcein leakage study was performed. In brief, liposomes which mimic bacterial membrane (DOPE: […] The lipids were dissolved in methanol/chloroform (1:2, by volume). The solvent was then dried gently using a constant stream of nitrogen gas. Then, the lipid film was placed under vacuum for at least two hours. […] The hydrated vesicles were freeze-thaw (frozen in liquid nitrogen and warmed in water bath) for at least 7 cycles. Extrusion method using mini-extruder (Avanti Polar Lipid Inc.) was used to produce homogeneous large unilamellar vesicles (LUVs). The extrusion was done for at least 10 cycles using a polycarbonate membrane (Whatman, pore size 100 nm) to obtain LUVs with diameter of 100 nm. To separate the calcein encapsulated vesicles from free calcein, gel filtration column Sephadex G-50 was used. The concentrations of eluted liposomes were determined using total phosphorus determination assay. Leakage of calcein from the liposome induced by AM-series compounds could be monitored using fluorescence spectroscopy (Photon Technology International Model 814) at an excitation wavelength of 490 nm and an emission wavelength of 520 nm. […] Those compounds with […] HC50 values have stronger leakage %. […] To further investigate the inner membrane targeting action of AM-series compounds, E. coli lipid extract was used to construct the liposome. […] Therefore, the outer layer of Gram-negative bacteria (LPS) may play important role to impede the AM-series compounds to reach inner membrane. Calcein leakage data strongly support the active compounds are inner membrane targeting."}, "[14]": {"system": "red blood cell"}, "[15]": {"system": "Clinical Staphylococcus aureus DM4001", "assay": "Cytoplasmic membrane depolarization (DiSC3 dye)", "assay_type": "cell-based", "details": "DiSC3 fluorescence; AM-016 at 12.5 ug/mL", "procedure": "Membrane potential-sensitive dye 3,3′-dipropylthiadicarbocyanine iodide (DiSC3) was used to determine the cytoplasmic membrane depolarization activity of AM-016. An overnight culture of clinical Staphylococcus aureus DM4001(source: Eye) was allowed to grow in Muller-Hinton broth (MHB) to OD620=0.3-0.4. Then, the bacteria was collected by centrifugation at 2800 r.p.m at 37° C. for 30 minutes and washed with 5 mM HEPES buffer at pH7. […] The cell suspension was then incubated with 0.1M KCl and 0.4 μM DiSC3 at 37° C. for 30 minutes. Dye uptake was monitored by fluorospectrometry (Photon Technology International (PTI) Photomultiplier Detection Systems, model 814) in a stirred cuvette until the fluorescence signal was stable. The desired concentration of AM-016 was added and the fluorescence was monitored at an excitation wavelength of 622 nm and at an emission wavelength of 670 nm. A blank with dye in the absence of bacteria with same concentration of AM-016 was used as a control."}, "[16]": {"system": "MRSA", "assay": "MIC99 against MRSA (Table 2-1)", "assay_type": "cell-based, Staphylococcus aureus"}, "[17]": {"system": "Clinical Staphylococcus aureus DM4400R", "assay": "MIC against clinical S. aureus DM4400R", "assay_type": "cell-based", "details": "Source: Cornea"}, "[18]": {"system": "Staphylococcus aureus 10: DB6506 (MRSA04/10) (VISA)", "assay": "MIC against S. aureus DB6506 (VISA)", "assay_type": "cell-based", "details": "no unit in table (Example 10 MICs in μg/ml)"}}, "note": "“And” between values parts separate entries of the source, which are not always exact repeats. Identical values can stand only once. “Also recorded” adds a separate entry of the source. Like-named read-outs stand apart in the source and are kept apart here."}
{"substance": "3,6-bis-[4-(diethylamino)butoxy)]-1-hydroxy-7-methoxy-2,8-bis(3-methylbut-2-enyl)-9H-xanthen-9-one [AM-016]", "values": [{"measurement": "Minimum inhibition concentration (MIC)", "setting": "[1]", "value": "3.125 μg/ml and 4.70 μM"}, {"measurement": "Minimum inhibitory concentration", "setting": "[2]", "value": 1.56}, {"measurement": "Minimum inhibition concentration (MIC)", "setting": "[3]", "value": "0.39 μg/ml and 0.59 μM"}, {"measurement": "Activity against Gram-positive bacteria", "setting": "[4]", "value": "active"}, {"measurement": "MIC99 S. aureus", "setting": "[5]", "value": 0.39, "unit": "µg/mL"}, {"measurement": "Time to eliminate 99.9% of MRSA", "setting": "[6]", "value": "≤ 20", "unit": "min"}, {"measurement": "Minimum inhibition concentration (MIC)", "setting": "[7]", "value": "0.195 μg/ml and 0.295 μM"}, {"measurement": "Minimum inhibition concentration (MIC)", "setting": "[8]", "value": "0.78 μg/ml and 1.17 μM"}, {"measurement": "MIC100", "setting": "[9]", "value": 4, "unit": "µM"}, {"measurement": "MIC100", "setting": "[9]; value in brackets", "value": 2.66, "unit": "µg/mL"}, {"measurement": "Minimum inhibition concentration (MIC)", "setting": "[10]", "value": "1.56 μg/ml and 2.35 μM"}, {"measurement": "SYTOX green staining of bacteria (fluorescence microscopy)", "setting": "[11]; FIG. 14", "value": "Large numbers of stained bacteria"}, {"measurement": "Membrane permeabilization (SYTOX green fluorescence emission)", "setting": "[11]; fluorescence spectroscopy", "value": "could induce membrane permeabilization"}, {"measurement": "Minimum inhibition concentration (MIC)", "setting": "[12]", "value": "0.78 μg/ml and 1.17 μM"}, {"measurement": "Leakage of calcein from the E. coli lipid extract (in words)", "setting": "[13]", "value": "able to induce leakage"}, {"measurement": "% Leakage of calcein", "setting": "[13]; compound:lipid ratio 1:2", "value": 57.82, "unit": "%"}, {"measurement": "% Leakage of calcein", "setting": "[13]; compound:lipid ratio 1:4", "value": 58.43, "unit": "%"}, {"measurement": "% Leakage of calcein", "setting": "[13]; compound:lipid ratio 1:8", "value": 31.70, "unit": "%"}, {"measurement": "HC50", "setting": "[14]", "value": 19.6, "unit": "µg/mL"}, {"measurement": "Hemolytic concentration, HC50", "setting": "[14]", "value": 19.6, "unit": "µg/mL"}, {"measurement": "Cytoplasmic membrane depolarization", "setting": "[15]", "value": "causes membrane depolarization; also recorded: depolarizes"}, {"measurement": "MIC99 MRSA", "setting": "[16]", "value": 0.39, "unit": "µg/mL"}, {"measurement": "Minimum inhibition concentration (MIC)", "setting": "[17]", "value": "0.78 μg/ml and 1.17 μM"}, {"measurement": "Minimum inhibitory concentration", "setting": "[18]", "value": 0.78}]}
